Target: T1, PfHtrA2 (HtrA2/Omi serine protease) (Plasmodium falciparum, UniProt A0A143ZXD4)
T1 construct: gene PF3D7_0812200; protease domain (135–290 aa; HtrA2-protease), histidine-tagged, expressed in E. coli
T1 sequence (A0A143ZXD4 135-290): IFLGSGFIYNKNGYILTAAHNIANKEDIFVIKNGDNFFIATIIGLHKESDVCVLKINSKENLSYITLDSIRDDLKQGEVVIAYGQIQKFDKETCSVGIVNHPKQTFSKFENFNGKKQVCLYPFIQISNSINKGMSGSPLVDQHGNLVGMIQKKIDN
Experiment: fluorogenic protease activity assay of the recombinant protease domain, concentration-dependent inhibition
Format: biochemical

SMILES: O=C1C(=Cc2ccc(-c3ccccc3[N+](=O)[O-])o2)C(=O)N(c2ccccc2)C(=S)N1c1ccccc1 [ucf-101]
- IC50: 8.1 µM
